Data taken from publication PMC10590419, “Structural and mechanistic insights into the inhibition of respiratory syncytial virus polymerase by a non-nucleoside inhibitor” (Communications Biology, 2023).

Assays:
[1] = target: human mitochondrial RNA polymerase (POLRMT) (Homo sapiens, UniProt O00411); assay: Mitochondrial RNA polymerase DdRp activity; assay type: biochemical
Protocol: to the method described previously 1. A 25 nM solution of RSV MTase-CTD protein or RSV L+P complex was incubated with 0.7 µM or 1.8 µM purified synthetic RNA 5’-Gppp […]
[…] (RSV9) for the MTase-CTD or L+P complex, respectively; 2 µM or 0.17 µM S-adenosyl methionine (SAM) for the MTase-CTD or L–P complex, respectively; and 0.1 µM or 0.8 µM 3H-SAM (Perkin Elmer) for the MTase-CTD or L–P complex, respectively; in 50 mM Tris-HCl pH 8.0. Compounds, previously dissolved in DMSO were added at a final concentration of 50 µM or 200 µM. After 3 h incubation at 30°C, reactions were quenched by a 20-fold dilution in ice cold water. […] They were then soaked with scintillation fluid (Perkin Elmer), and 3H-methyl transfer to the RNA substrates was determined using a Wallac MicroBeta TriLux Liquid Scintillation Counter. […]
Human DNA polymerases alpha (CHIMERx) at 5 U/ml, beta (CHIMERx) at 0.5 U/ml and gamma (Abcam) at 0.1 mg/ml were incubated with the tested inhibitors at specified concentrations, and a reaction mix composed of 62 µg/ml activated calf thymus DNA, dGTP (2 µM), dATP (2 µM), dCTP (2 µM), [ 3H]dTTP (0.05 µCi/µl), 0.1 mg/ml BSA and a buffer composed of Tris-HCl pH 8 (50 mM), MgCl 2 (5 mM), KCl (60 mM), and DTT (4 mM.) in a total volume of 50 µl. […] Radioactivity was measured via liquid scintillation counting (MicroScint-20, 40µl) on a TriLux apparatus. […]

Human RNA polymerase II = Human RNA polymerase II (Homo sapiens, UniProt P24928+P30876); assay: RNA polymerase II DdRp activity (HeLa nuclear extract); assay type: biochemical; conditions: RNA Pol II
[2] = tested on: PIV-3 (recombinant JS-derived strain encoding GFP); assay type: cell-based, parainfluenza virus type 3
RSV L+P complex = RSV L+P complex (Human respiratory syncytial virus A, UniProt P28887); assay: Thermal shift assay (Prometheus NT.48); assay type: binding, Human RSV (strain A2); conditions: read-out: increase in melting temperature (Tm)
RSV L+P complex, sequence (P03421 whole entry): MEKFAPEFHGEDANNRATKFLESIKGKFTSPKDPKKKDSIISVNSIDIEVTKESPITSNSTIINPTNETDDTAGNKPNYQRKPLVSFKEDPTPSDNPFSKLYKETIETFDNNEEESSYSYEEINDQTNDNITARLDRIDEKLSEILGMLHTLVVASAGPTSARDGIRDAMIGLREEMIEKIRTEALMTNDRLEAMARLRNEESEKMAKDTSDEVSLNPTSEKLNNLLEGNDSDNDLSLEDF
RSV L+P complex, sequence (P28887 whole entry): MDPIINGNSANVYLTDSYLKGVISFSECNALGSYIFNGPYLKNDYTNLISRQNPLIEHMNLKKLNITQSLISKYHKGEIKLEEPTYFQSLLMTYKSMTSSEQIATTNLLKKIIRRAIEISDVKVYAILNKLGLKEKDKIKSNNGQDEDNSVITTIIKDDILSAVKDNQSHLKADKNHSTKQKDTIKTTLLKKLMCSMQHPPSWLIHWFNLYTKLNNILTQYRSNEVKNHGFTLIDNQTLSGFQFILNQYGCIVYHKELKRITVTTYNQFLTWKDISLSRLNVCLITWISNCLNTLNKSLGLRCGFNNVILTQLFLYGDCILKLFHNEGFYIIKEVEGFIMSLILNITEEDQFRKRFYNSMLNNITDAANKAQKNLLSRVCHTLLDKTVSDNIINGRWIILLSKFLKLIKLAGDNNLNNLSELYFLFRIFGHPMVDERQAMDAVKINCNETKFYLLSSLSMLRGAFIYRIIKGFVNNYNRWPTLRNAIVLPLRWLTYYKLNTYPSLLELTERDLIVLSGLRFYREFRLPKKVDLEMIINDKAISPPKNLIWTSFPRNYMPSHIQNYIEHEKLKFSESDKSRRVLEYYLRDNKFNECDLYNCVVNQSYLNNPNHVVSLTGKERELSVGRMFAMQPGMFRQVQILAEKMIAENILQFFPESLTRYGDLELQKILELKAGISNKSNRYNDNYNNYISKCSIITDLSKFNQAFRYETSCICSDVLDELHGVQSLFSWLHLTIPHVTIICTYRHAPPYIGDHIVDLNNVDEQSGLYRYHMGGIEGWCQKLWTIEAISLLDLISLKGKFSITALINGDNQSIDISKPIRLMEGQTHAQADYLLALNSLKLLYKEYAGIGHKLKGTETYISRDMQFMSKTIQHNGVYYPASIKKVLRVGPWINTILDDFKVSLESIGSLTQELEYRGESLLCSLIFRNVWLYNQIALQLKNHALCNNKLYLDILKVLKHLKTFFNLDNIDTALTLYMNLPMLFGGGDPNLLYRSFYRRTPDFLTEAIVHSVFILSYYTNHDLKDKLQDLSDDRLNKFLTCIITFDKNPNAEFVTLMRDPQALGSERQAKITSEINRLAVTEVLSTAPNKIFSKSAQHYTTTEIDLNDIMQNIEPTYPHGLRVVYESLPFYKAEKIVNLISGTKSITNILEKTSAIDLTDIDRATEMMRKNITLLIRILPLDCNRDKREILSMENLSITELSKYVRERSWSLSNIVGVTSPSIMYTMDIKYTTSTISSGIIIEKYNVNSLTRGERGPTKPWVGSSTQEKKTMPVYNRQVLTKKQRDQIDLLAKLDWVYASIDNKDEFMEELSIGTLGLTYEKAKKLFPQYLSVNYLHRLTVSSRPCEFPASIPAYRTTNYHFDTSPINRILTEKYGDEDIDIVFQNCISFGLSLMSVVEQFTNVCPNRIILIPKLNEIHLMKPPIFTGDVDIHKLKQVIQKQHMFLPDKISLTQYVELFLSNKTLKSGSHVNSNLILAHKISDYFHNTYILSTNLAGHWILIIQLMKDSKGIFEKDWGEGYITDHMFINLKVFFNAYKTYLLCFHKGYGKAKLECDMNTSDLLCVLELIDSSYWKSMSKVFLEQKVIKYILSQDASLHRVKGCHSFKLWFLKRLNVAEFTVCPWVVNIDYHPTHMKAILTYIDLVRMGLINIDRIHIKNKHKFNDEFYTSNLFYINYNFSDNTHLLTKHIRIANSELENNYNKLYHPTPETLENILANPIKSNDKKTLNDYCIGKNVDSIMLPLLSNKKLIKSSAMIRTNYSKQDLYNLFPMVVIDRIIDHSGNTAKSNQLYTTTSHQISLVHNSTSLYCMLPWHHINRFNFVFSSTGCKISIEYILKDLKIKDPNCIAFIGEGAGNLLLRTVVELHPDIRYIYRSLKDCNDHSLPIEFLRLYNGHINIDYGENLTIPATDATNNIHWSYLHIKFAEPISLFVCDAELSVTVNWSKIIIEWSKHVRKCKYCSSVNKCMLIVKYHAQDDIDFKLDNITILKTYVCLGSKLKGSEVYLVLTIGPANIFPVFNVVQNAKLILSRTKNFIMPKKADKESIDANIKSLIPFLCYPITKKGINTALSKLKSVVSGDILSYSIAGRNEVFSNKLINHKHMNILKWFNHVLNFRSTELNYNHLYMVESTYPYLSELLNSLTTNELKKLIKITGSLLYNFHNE

[3] = tested on: rgRSV224 (RSV A2 reporter virus); assay: Inhibition of rgRSV224 reporter RSV in HeLa cells (GFP); conditions: human respiratory syncytial virus, 72 h, read-out: Median EC50

human mitochondrial RNA polymerase (POLRMT), sequence (O00411 42-1230): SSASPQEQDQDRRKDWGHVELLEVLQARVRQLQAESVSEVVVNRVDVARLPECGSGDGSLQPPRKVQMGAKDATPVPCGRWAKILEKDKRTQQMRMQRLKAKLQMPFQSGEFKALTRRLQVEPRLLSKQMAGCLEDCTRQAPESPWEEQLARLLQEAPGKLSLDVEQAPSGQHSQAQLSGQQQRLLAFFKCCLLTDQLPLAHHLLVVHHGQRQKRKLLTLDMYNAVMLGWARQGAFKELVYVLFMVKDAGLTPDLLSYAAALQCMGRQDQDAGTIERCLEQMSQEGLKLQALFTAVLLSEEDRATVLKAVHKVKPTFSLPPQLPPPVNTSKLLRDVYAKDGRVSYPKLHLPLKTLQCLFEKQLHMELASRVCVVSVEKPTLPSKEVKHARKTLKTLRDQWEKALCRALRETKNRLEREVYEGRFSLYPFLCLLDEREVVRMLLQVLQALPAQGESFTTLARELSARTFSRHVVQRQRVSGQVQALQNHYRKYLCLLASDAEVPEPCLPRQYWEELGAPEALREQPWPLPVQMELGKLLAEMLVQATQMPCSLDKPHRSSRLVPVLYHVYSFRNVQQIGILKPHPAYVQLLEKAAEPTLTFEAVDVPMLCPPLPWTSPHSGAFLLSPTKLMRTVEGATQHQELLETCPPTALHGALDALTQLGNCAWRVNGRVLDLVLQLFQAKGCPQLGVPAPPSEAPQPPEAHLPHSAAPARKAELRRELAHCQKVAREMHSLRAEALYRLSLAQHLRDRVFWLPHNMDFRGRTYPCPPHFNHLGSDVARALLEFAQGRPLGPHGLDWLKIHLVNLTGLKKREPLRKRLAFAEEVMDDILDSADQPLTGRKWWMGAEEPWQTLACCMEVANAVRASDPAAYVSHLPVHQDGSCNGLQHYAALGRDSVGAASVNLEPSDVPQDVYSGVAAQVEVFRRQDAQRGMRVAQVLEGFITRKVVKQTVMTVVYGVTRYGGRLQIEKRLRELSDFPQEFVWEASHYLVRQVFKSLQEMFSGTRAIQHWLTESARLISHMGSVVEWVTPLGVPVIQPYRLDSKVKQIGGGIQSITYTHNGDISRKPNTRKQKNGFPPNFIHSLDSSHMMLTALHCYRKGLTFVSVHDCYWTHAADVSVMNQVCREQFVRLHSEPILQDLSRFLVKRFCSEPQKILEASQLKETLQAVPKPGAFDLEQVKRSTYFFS

SMILES: COc1cc(C(=O)NC[C@](O)(c2cc(C(C)(C)O)c(F)c(-c3ccc(F)cc3)n2)C(F)(F)F)cc2cc(C)nnc12 [JNJ-8003]
- IC50 [1]: > 100 µM
- IC50 (Human RNA polymerase II): > 100 µM
- inhibition (in words) [2]: negligible inhibition
- ΔTm at 25 µM (RSV L+P complex): 6 °C
- EC50 [3]: 0.00078 µM
